In patent publication US20090131528A1, “SALT” (priority 2006, published 2009):
Where a name gives a salt, the structure may show the parent alone.

Tests used:
[1] = 1-Week Chemical Stability Test, total impurities by HPLC-UV 230 nm; type: physicochemical
Description: (§1) The exceptional stability of the nitrate salt of aliskiren towards water may also be shown in stability tests.

[2] = Dynamic vapour sorption (DVS-1), isothermal water absorption or loss; type: physicochemical; conditions: for Change in Mass (%) Desorption / Change in Mass (%) Sorption: 25° C., 2 hours after equilibration
Description: A clear characterisation of this property is achieved by means of isothermal measurements over predetermined time intervals and predetermined relative humidity using dynamic vapour sorption (DVS-1 from the company Surface Measurement Systems LTD, Marlow, Buckinghamshire, UK). […] The measurement error of this sorption method based on thermogravimetry is about 0.1%.

[3] = Stability test towards water, water content on storage; type: physicochemical; conditions: open container and sealed ampoule, four weeks at 40° C. and 75% relative humidity
Description: as §1

physchem = assay: physchem
Description: The active ingredient aliskiren is the free base which is described specifically in EP 678503 A and it has one basic group, the amino group in position 5. […] Accordingly, one acidic group can bind to the nitrogen lone pairs of the amino group.

[4] = Hygroscopicity, general statement; type: physicochemical

**Q.** Which results are given for `COCCCOc1cc(C[C@@H](C[C@H](N)[C@@H](O)C[C@H](C(=O)NCC(C)(C)C(N)=O)C(C)C)C(C)C)ccc1OC` [HemiFumarate]?
**A.** Total Impurities (HPLC-UV, 230 nm), % ([1]; 1 week, 50 C. sealed): 1.1%; Total Impurities (HPLC-UV, 230 nm), % ([1]; 1 week, 50 C./75% RH): 9.3%; Total Impurities (HPLC-UV, 230 nm), % ([1]; 1 week, 80 C. sealed): 18.1%; Total Impurities (HPLC-UV, 230 nm), % ([1]; 1 week, 80 C./75% RH): 64.3%; Total Impurities (HPLC-UV, 230 nm), % ([1]; Unstressed): 1.1%

**Q.** For `COCCCOc1cc(C[C@@H](C[C@H](N)[C@@H](O)C[C@H](C(=O)NCC(C)(C)C(N)=O)C(C)C)C(C)C)ccc1OC` [nitrate salt of aliskiren], which “Total Impurities (HPLC-UV, 230 nm), %” value ([1]; 1 week, 50 C. sealed, listed as Nitrate) is on record?
**A.** 1.0%

**Q.** What about the “Total Impurities (HPLC-UV, 230 nm), %” value ([1]; 1 week, 50 C./75% RH, listed as Nitrate) of the same compound?
**A.** 1.0%

**Q.** And the “Total Impurities (HPLC-UV, 230 nm), %” value ([1]; 1 week, 80 C. sealed, listed as Nitrate)?
**A.** 1.0%

**Q.** And the “Total Impurities (HPLC-UV, 230 nm), %” value ([1]; 1 week, 80 C./75% RH, listed as Nitrate)?
**A.** 1.1%

**Q.** And the “water absorption or loss” value ([2]; DVS conditions employed, measurement error about 0.1%)?
**A.** no measurable water absorption or loss

**Q.** What about the hygroscopicity ([2]; DVS, up to 95% RH) of the same compound?
**A.** non-hygroscopic

**Q.** And the moisture uptake ([2]; at 95% RH)?
**A.** 0.3%

**Q.** And the “Change in Mass (%) Desorption” value ([2]; relative humidity 0%)?
**A.** −0.0060%

**Q.** And the “Change in Mass (%) Sorption” value ([2]; relative humidity 0%, 39.4 mg sample)?
**A.** 0.0001%

**Q.** What about the “Change in Mass (%) Desorption” value ([2]; relative humidity 25%) of the same compound?
**A.** 0.0326%

**Q.** What about the “Change in Mass (%) Sorption” value ([2]; relative humidity 25%) of the same compound?
**A.** 0.0269%

**Q.** And the “Change in Mass (%) Desorption” value ([2]; relative humidity 50%)?
**A.** 0.0842%

**Q.** What about the “Change in Mass (%) Sorption” value ([2]; relative humidity 50%) of the same compound?
**A.** 0.0821%

**Q.** What about the “Change in Mass (%) Desorption” value ([2]; relative humidity 75%) of the same compound?
**A.** 0.1495%

**Q.** And the “Change in Mass (%) Sorption” value ([2]; relative humidity 75%)?
**A.** 0.1425%

**Q.** And the “Change in Mass (%) Desorption” value ([2]; relative humidity 85%)?
**A.** 0.1938%

**Q.** What about the “Change in Mass (%) Sorption” value ([2]; relative humidity 85%) of the same compound?
**A.** 0.1864%

**Q.** What about the “Change in Mass (%) Desorption” value ([2]; relative humidity 95%) of the same compound?
**A.** 0.3091%

**Q.** What about the “Change in Mass (%) Sorption” value ([2]; relative humidity 95%) of the same compound?
**A.** 0.3091%

**Q.** What about the water content [3] of the same compound?
**A.** remains constant

**Q.** With `COCCCOc1cc(C[C@@H](C[C@H](N)[C@@H](O)C[C@H](C(=O)NCC(C)(C)C(N)=O)C(C)C)C(C)C)ccc1OC` [aliskiren, 2(S),4(S),5(S),7(S)—N-(3-amino-2,2-dimethyl-3-oxopropyl)-2,7-di(1-methylethyl)-4-hydroxy-5-amino-8-[4-methoxy-3-(3-methoxy-propoxy)phenyl]-octanamide] as the compound, how does the pKa (physchem) read?
**A.** 9.79

**Q.** What about the hygroscopicity [4] of the same compound?
**A.** highly hygroscopic
